These results are taken from patent publication US20250051266A1, “Novel GLV-Phenolamide: Biosynthesis and Function in Protecting Plants from Herbivore Attack” (Max-Planck-Gesellschaft zur Förderung der Wissenschaften …, priority 2021, published 2025).

As a reminder, the half-life is the time needed for the level to fall by half in the phase considered. By mortality is commonly meant the percentage killed.

The target of data set [1] is NaPPO2 (Nicotiana attenuata, UniProt A0A1J6IKE9). The data set is described as follows: In vitro enzyme assay, substrate specificity of NaPPO2. The data set is classed as biochemical. The source says:
(§1) Extracted ion chromatograms (EIC) for doubly charged CP dimer (m/z 250.13) and m/z 347.19 in E. coli expressing NaPPO1 and NaPPO2 with CP and Z3H or (E)-2-hexenal. Compounds 1, 2, 3, 4 denote isomers of CP dimer; compounds 5, 6 denote isomers of m/z 347.19.
(§2) FIG. 53 Substrate specificity of NaPPO1 and NaPPO2 enzymes. Overlay of total ion chromatograms (TIC) of enzyme assays for authentic chlorogenic acid (CGA std), N-coumaroylputrescine (CoP std), (Z)-3-hexenal or (E)-2-hexenal with purified NaPPO1/NaPPO2 from E. coli. Compounds 1 and 2 denote CGA and CoP; 3 and 4 denote contamination peaks from (Z)-3-hexenal and CoP standards, respectively.
(§3) To test this hypothesis, purified NaPPO1, NaPPO2 and NaBBL2 proteins with N-terminal hexahistidine tags after expression in Escherichia coli were isolated (FIGS. 44-45). Incubation of either NaPPO1 or NaPPO2 (NaPPO1/2) with CP and (Z)-3-hexenal yielded a m/z 347.19 peak with identical MS/MS spectrum and retention time as the m/z 347.19 induced in N. attenuata leaves (FIG. 46). Additionally, by-products of doubly charged CP dimers at m/z 250.13 ([M+2H]2+, C26H36N4O62+) which are not detected in oral secretion-induced leaves of N. attenuata WT (Data 2) were also produced in vitro (FIG. 16 and FIG. 47). These doubly charged CP dimers were only produced when the quantities of the (Z)-3-hexenal substrate were lower than those of the CP substrate in vitro. […]
(§4) In vitro assays of NaPPO1, NaPPO2, and NaBBL2: NaPPO1, NaPPO2, and NaBBL2 enzyme activity assays were performed by incubating 100 μg of the purified recombinant protein in 84 mM acetate buffer (pH 4.8) containing 20 mM (E)-N-caffeoylputrescine (BOC Sciences, catalogue #: B0005-053482) and 1 M cis-3-hexenal (Sigma, catalogue #: W256102-SAMPLE-K) or trans-2-hexenal (Sigma, catalogue #: W256005-1KG-K). During incubation of the enzyme reactions at 8° C., 1 μL of the reactions buffer was directly injected and analyzed by LC-MS every h to detect products. […]

The target in data set [2] is T1, NaPPO1 (Nicotiana attenuata, UniProt A0A1J6JLI9).
T1 sequence (A0A1J6JLI9 1-596): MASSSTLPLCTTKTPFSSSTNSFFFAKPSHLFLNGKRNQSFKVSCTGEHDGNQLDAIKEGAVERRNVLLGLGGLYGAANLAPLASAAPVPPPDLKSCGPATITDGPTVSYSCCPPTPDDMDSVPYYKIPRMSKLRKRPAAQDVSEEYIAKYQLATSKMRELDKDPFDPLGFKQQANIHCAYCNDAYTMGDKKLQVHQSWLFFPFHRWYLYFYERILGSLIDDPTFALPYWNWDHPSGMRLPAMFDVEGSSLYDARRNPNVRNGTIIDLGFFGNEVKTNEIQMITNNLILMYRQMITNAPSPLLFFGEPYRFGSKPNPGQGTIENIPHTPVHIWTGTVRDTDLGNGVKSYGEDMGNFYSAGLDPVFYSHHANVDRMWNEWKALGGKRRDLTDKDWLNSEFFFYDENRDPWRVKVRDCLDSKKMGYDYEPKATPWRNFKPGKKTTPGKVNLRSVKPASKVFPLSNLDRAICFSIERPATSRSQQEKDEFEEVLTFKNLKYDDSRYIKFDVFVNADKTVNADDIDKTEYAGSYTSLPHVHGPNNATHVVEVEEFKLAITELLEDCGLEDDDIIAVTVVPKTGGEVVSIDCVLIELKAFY
The data set is described as follows: In vitro enzyme assay, substrate specificity of NaPPO1. The class given is biochemical.
Source text: as §1, §2, §3, §4

Data set [3] concerns Empoasca leafhoppers. Kind of data set: In vivo Empoasca choice assay, compounds infiltrated into irMYC2 leaves. Set-up: species or system Empoasca decipiens. To be noted: synthetic CoP 7 μM, CP 100 μM, FP 10 μM in 0.1% DMSO infiltrated into irMYC2 leaves. As to the method: The spermi-dine-derived metabolites could be excluded as mediators of Empoasca nonhost resistance based on the lack of responses of leafhoppers to the irDH29 and irCV86 lines (FIG. 5). To further explore the involvement of CoP, CP and FP, in vivo Empoasca choice assays were conducted by individually infiltrating physiologically relevant concentrations of synthetic CoP (7 μM), CP (100 μM) and FP (10 μM) into leaves of irMYC2 plants which were devoid of elicited phenolamides (FIG. 9 and FIG. 34).
Two replicates of the 650 RILs from a 26-parent MAGIC population and their 26 parental 5 lines were planted at the WCCER field station, Prescott, Arizona, USA. To elicit a standardized herbivory response, leaves of all RILs, which were in the early-flowering stage were wounded and immediately treated with diluted Manduca sexta oral secretions (W+OS) or left untreated (control) and harvested on dry ice at 1 h and 72h. One week after metabolite sampling, all plants of the field population were screened for natural Empoasca leafhopper numbers and damage; these leafhoppers had opportunistically sampled the N. attenuata plants from neighboring native cu-cumber hostplants. The mQTL and eQTL mapping between SNPs and the relative abundance of each compound or transcript using a set of 646 RILs of the MAGIC population was done with the R package software GAPIT using General linear models (GLM). The multi-omics co-association network was built from correlations among metabolomes, transcriptomes, phytohormones and SNPs. […] Metabolome diversity and specialization and metabolic specificity was calculated using information theory by consider-ing the Shannon entropy of the idMS/MS frequency distributions. […] OS-induced volatile emissions were collected using polydimethylsiloxane (PDMS) tubing from 650 MAGIC RILs planted in the main MPI-CE glasshouse and analyzed bythermal desorption-gas chromatography-mass spectrometry (TD-GC-MS). […]

The test system of data set [4] is Empoasca decipiens. The data set is described as follows: In vitro Empoasca non-choice (direct feeding) assay on artificial diet. The class given is in vivo. To be noted: for changes in mortality rates of E. decipiens compared to glucose controls: physiologically relevant concentrations (CoP 7 μM, CP 100 μM, FP 10 μM) in 10% glucose solution. As to the method: FIG. 18 Mortality rates of in vitro Empoasca non-choice assays (n=4, 25 Empoasca leafhoppers per replicate) in which Empoasca were fed for 6 h with either 1 μM m/z 347.19 synthesized by using NaPPO1/NaPPO2 and CP and Z3H and diluted in 10% glucose solution or with 10% glucose as control (top). Empoasca in planta choice assays (n=8) conducted with VIGS plants of EV, PPO1, PPO2 and AT1 (bottom).
To test if CPH is responsible for Empoasca resistance, E. decipiens were fed with physiologically relevant concentrations of 1 μM (estimated from field-collected elicited leaves) of NMR-confirmed CPH in diets containing 10% glucose in vitro. […] NaAT1 expression was silenced in N. attenuata plants using VIGS, which disrupted the production of both CP and the CPH (Li et al., Proc Natl Acad Sci USA 112, E4147-4155 (2015)) (FIG. 13).
Empoasca feeding assays: The survival rate of Empoasca feeding on artificial diet (10% 5 sucrose in water) supplemented with caffeoylputrescine (CP, 100 μM), coumaroylputrescine (CoP, 7 μM), feruloylputrescine (FP, 10 μM), or the m/z 347.19 hexenyl derivative of CP (CPH, 1 μM) was recorded every 1 h overnight. The artificial feeding devices consisted of a 50-mL Falcon tube with a 7-mm hole drilled into the conical bottom through which the leafhoppers were aspi-rated into the tube and which then was covered with Parafilm punctured with needles to create ventilation holes. The large opening of the Falcon tube was covered with a double layer of Parafilm containing the liquid diet (100 μL). The artificial feeding devices were placed upside down with the liquid diet side down on a White Light Box (STRATAGENE) to provide bottom-light illu-mination.

Data set [5] is described as follows: Estimation of half-life of m/z 347.19 by NMR time acquisitions. The conditions noted are these: acidified methanol-d3 (0.1% formic acid), room temperature, darkness. The data set is classed as physicochemical. The source says: FIG. 55 Estimation of half-life of m/z 347.19. Different time acquisitions of NMR spectra for purified m/z 347.19 are shown.
(§5) To elucidate the chemical structure of m/z 347.19, it was attempted to isolate and purify the m/z 347.19 using induced N. attenuata leaf material and enzyme assay-derived products. However, several attempts failed due to the instability of m/z 347.19. […] These observations indicate that m/z 347.19 is reactive and unstable at high pH. The purification procedures for m/z 347.19 were modified to produce large quantities from enzymatic assays under weak acidic conditions and purified m/z 347.19 using solid phase extraction under argon atmospheres. The purified m/z 347.19 was then subjected to NMR analysis, which elucidated its structural identity as a CP-5-(Z)-3-hexenal compound (hereafter named CPH) (FIG. 54). […] CPH contains both a reactive moiety of a, 3-unsaturated aldehyde derived from (Z)-3-hexenal, which is electrophilic, and an amine feature of the caffeoylputrescine, which is nucleophilic.

A short description of data set [6]: Stability of m/z 347.19 during sample extraction and purification. The data set is classed as physicochemical.
Source text: as §5

Entries after “also recorded” stand apart in the source; their conditions may differ.

NaPPO2, sequence (A0A1J6IKE9 entry or part of it): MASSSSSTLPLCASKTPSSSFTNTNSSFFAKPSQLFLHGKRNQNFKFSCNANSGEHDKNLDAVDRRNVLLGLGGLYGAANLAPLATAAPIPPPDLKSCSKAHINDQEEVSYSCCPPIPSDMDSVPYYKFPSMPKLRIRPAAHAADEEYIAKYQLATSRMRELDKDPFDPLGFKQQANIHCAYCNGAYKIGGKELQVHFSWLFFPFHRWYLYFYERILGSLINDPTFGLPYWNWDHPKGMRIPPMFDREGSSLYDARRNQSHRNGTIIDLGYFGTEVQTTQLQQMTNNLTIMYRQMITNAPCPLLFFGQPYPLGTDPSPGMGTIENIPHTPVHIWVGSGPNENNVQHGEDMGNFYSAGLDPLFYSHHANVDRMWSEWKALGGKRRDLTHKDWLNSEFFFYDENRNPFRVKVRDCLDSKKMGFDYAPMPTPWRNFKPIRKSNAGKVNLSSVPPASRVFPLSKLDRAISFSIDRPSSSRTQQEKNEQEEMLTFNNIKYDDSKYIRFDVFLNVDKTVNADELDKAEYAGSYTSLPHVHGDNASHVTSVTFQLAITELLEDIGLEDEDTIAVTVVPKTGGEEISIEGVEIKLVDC

On to `O=C(/C=C/c1ccc(O)c(O)c1)O[C@@H]1C[C@](O)(C(=O)O)C[C@@H](O)[C@H]1O` [CGA, chlorogenic acid], for which the “acceptance as substrate (new products)” value in data set [1] (incubated with NaPPO2 and (Z)-3-hexenal) was “not accepted as substrates”; in data set [2] (incubated with NaPPO1 and (Z)-3-hexenal) it was “not accepted as substrates”.
Regarding `CCC/C=C/C=O` [(E)-2-hexenal], the “enzyme activity (m/z 347.19 production)” value in data set [1] (NaPPO2 incubated with CP and (E)-2-hexenal) was “little-to-no activity”; in data set [2] (NaPPO1 incubated with CP and (E)-2-hexenal), “little-to-no activity”.
For the compound `NCCCCNC(=O)/C=C/c1ccc(O)c(O)c1` [CP, N-caffeoylputrescine], in data set [3], the “preference of Empoasca for irMYC2 plants” value is “did not alter the preference; also recorded: not affecting leafhopper behavior or performance”. The “changes in mortality rates of E. decipiens compared to glucose controls” value in data set [4] is “no significant changes in mortality rates; also recorded: not affecting leafhopper behavior or performance”.
On to `CCC(/C=C/C=O)c1cc(O)c(O)cc1/C=C/C(=O)NCCCCN` (centres unmarked) [CPH, CP-5-(Z)-3-hexenal], for which the half-life in data set [5] was about 22 h. The mortality at 1 µM in data set [4] (Empoasca decipiens, feed or water, 1 μM in diet containing 10% glucose, after 6 h of feeding, vs control diet, read-out: mortality of E. decipiens) was about 100%. Moreover, the Stability entry is “Yes” in data set [6] (Leaf sample collection using Eppendorf tubes without direct contact with liquid N2); “No” in data set [6] (Leaf sample collection using aluminium foil in liquid N2); “Yes” in data set [6] (Purifying using SPE column with argon flow); “No” in data set [6] (Purifying using freeze drying); “No” in data set [6] (Purifying using rotary evaporator); “Yes” in data set [6] (Sample extraction buffer pH 4.8). In data set [6] (Sample extraction buffer pH 10), the Stability result is “No”. In addition, the stability in buffer entry in data set [6] (ammonium-acetate buffer (pH 4.8)) is given as “relatively stable”. The stability when concentrated result in data set [6] (concentrated by rotatory evaporation or freeze drying) is “rapidly decomposed”. Moreover, the “stability at high pH” value in data set [6] (high pH) was “unstable”.
Consider `COc1cc(/C=C/C(=O)NCCCCN)ccc1O` [FP, N-feruloylputrescine], for which the “preference of Empoasca for irMYC2 plants” value in data set [3] is “did not alter the preference; also recorded: not affecting leafhopper behavior or performance”. For the same compound, the “changes in mortality rates of E. decipiens compared to glucose controls” value in data set [4] was “no significant changes in mortality rates; also recorded: not affecting leafhopper behavior or performance”.
